Laboratory results reported in BigSolDB 2.1.

CCOC(=O)C1=C[C@]2(CC)CCCN3CCc4c(n1c1ccccc41)[C@@H]32
solubility (mole fraction)
Details	in 2-butanone	in cyclohexane	in ethanol	in ethyl acetate	in isopropanol	in methanol	in methyl acetate	in n-butanol	in n-propanol
283.15 K	0.00526	0.00133	0.000492	0.0039	0.000345	0.000378	0.00262	0.000936	0.000727
288.15 K	0.00649	0.0017	0.000641	0.00481	0.000474	0.000476	0.00329	0.00127	0.00098
293.15 K	0.00793	0.00216	0.00082	0.00585	0.000643	0.000608	0.00416	0.0017	0.00126
298.15 K	0.00962	0.00274	0.00101	0.00718	0.000834	0.000736	0.00517	0.0022	0.00164
303.15 K	0.0118	0.00346	0.00126	0.00879	0.00108	0.00089	0.00646	0.00285	0.00208
308.15 K	0.0142	0.00433	0.00158	0.0106	0.00137	0.0011	0.00794	0.00374	0.00268
313.15 K	0.017	0.00537	0.00197	0.0127	0.00184	0.00136	0.00973	0.0048	0.00343
318.15 K	0.0203	0.00656	0.00245	0.0154	0.00245	0.00166	0.0121	0.00632	0.00435
323.15 K	0.0239	0.00802	0.00302	0.0185	0.00323	0.00204	0.0148	0.00806	0.00528
